Assay results as given in ChEMBL document CHEMBL5376004, “Discovery and Development of Quinazolinones and Quinazolinediones for Ameliorating Nonalcoholic Fatty Liver Disease (NAFLD) by Modulating COP1-ATGL Axis” (J Med Chem, 2023).
Values after ≈ are worked out from the molar mass of the structure shown. Active and inactive are the calls of the source. The rule behind the calls is not given here.

Key:
[1] = Metabolic stability in mouse liver microsomes assessed as hepatic blood flow; format: ADME, Microsome; conditions: read-out: QH
[2] = Metabolic stability in human liver microsomes assessed as intrinsic clearance per mg of protein; format: ADME, Microsome; conditions: read-out: CLH
[3] = system: Mus musculus; assay: Upregulation of ATGL expression level in C57BL/6 mouse adipose tissue at 80 mg/kg, po administered for 7 days; format: functional, organism-based; conditions: time 7.0 day
[4] = system: Hepatocyte; assay: Reduction in lipid droplets in oleate induced mouse primary hepatocytes at 100 nM by BODIPY493/503 staining based confocal microscopic analysis; format: functional, cell-based
[5] = Metabolic stability in human liver microsomes assessed as half life; format: ADME, Microsome
[6] = system: HepG2; assay: Cytotoxicity against human HepG2 cells upto 5 uM incubated for 24 hrs by MTT assay; format: toxicity, cell-based; conditions: hepg2, 24 h
[7] = Stability in human plasma assessed as compound remaining after 2 hrs; format: ADME, cell-free; conditions: read-out: Stability
[8] = system: HepG2; assay: Effect on COP1 in human HepG2 cells assessed as change in p53 level at 10 to 500 nM by RT-qPCR analysis; format: functional, cell-based; conditions: dose 10-500 nM
[9] = Toxicity in C57BL/6 mouse assessed as change in kidney morphology by H and E staining based histological analysis; conditions: in vivo
[10] = molecular target: T1, Patatin-like phospholipase domain-containing protein 2 (Homo sapiens) (UniProt Q96AD5); assay: Inhibition of ATGL ubiquitination in human HepG2 cells preincubated for 20 hrs followed by MG132 addition and measured after 4 hrs by immunoprecipitation method; format: cell-based; conditions: time 24.0 hrs
T1 sequence (whole entry): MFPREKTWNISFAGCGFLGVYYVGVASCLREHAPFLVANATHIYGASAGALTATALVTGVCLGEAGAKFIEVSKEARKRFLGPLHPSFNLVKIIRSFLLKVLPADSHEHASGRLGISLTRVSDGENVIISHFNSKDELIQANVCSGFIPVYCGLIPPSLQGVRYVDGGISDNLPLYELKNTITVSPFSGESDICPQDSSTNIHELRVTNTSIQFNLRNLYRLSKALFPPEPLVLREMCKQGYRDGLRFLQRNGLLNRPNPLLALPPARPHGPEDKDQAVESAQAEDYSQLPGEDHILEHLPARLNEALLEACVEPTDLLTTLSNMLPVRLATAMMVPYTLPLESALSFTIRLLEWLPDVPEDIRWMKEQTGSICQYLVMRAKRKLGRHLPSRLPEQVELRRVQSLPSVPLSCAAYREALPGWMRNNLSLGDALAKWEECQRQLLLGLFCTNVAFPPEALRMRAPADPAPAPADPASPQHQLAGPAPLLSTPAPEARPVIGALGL

[11] = system: HepG2; assay: Reduction in lipid droplets in human HepG2 cells by […] staining based confocal microscopic analysis; format: functional, cell-based
[12] = system: Mus musculus; assay: Upregulation of COP1 expression level in C57BL/6 mouse liver at 80 mg/kg, po administered for 7 days; format: functional, organism-based; conditions: time 7.0 day
[13] = system: Mus musculus; assay: Anti-NASH activity in high-fat diet induced nonalcoholic steatohepatitis C57BL/6 mouse assessed as reduction in body weight at 80 mg/kg, po administered for 1 month; format: functional, organism-based; conditions: time 1.0 months
[14] = system: Mus musculus; assay: Anti-NASH activity in high-fat diet induced nonalcoholic steatohepatitis C57BL/6 mouse assessed as reduction in liver triglyceride level at 80 mg/kg, po administered for 1 month; format: functional, organism-based; conditions: time 1.0 months
[15] = system: HepG2; assay: Effect on COP1 in human HepG2 cells assessed as change in c-Jun level at 10 to 500 nM by RT-qPCR analysis; format: functional, cell-based; conditions: dose 10-500 nM
[16] = system: Hepatocyte; assay: Upregulation of ATGL protein level in mouse primary hepatocytes incubated for 24 hrs by Western blotting analysis; format: functional, cell-based; conditions: dose 10-500 nM
[17] = Aqueous solubility of compound at pH 7.4; format: physicochemical
[18] = Stability in mouse plasma assessed as compound remaining after 2 hrs; format: ADME, cell-free; conditions: read-out: Stability
[19] = organism: Mus musculus; assay: Upregulation of ATGL protein level in mouse primary adipose tissue incubated for 24 hrs by Western blotting analysis; format: functional, tissue-based; conditions: dose 100-1000 nM
[20] = system: Mus musculus; assay: Anti-NASH activity in high-fat diet induced nonalcoholic steatohepatitis C57BL/6 mouse assessed as reduction in liver size at 80 mg/kg, po administered for 1 month; format: functional, organism-based; conditions: time 1.0 months
[21] = system: Mus musculus; assay: Upregulation of ATGL expression level in C57BL/6 mouse liver at 80 mg/kg, po administered for 7 days; format: functional, organism-based; conditions: time 7.0 day
[22] = Lipophilicity, logD of compound; format: physicochemical; conditions: octanol/water
[23] = system: Mus musculus; assay: Anti-NASH activity in high-fat diet induced nonalcoholic steatohepatitis C57BL/6 mouse assessed as reduction in accumulation of fat droplets at 80 mg/kg, po administered for 1 month by H and E staining based assay; format: functional, organism-based; conditions: time 1.0 months
[24] = system: HepG2; assay: Reduction in lipid droplets in human HepG2 cells at 100 nM incubated for 24 hrs by Hoechst 33342 staining based confocal microscopic analysis; format: functional, cell-based
[25] = system: HepG2; assay: Effect on ATGL mRNA level in human HepG2 cells at 50 to 5000 nM after 24 hrs by RT-qPCR analysis; format: functional, cell-based; conditions: dose 50-5000 nM
[26] = Toxicity in C57BL/6 mouse assessed as change in liver morphology by H and E staining based histological analysis; format: tissue-based; conditions: in vivo
[27] = Metabolic stability in mouse liver microsomes assessed as intrinsic clearance per mg of protein; format: ADME, Microsome; conditions: read-out: CLH
[28] = system: Mus musculus; assay: Anti-NASH activity in high-fat diet induced nonalcoholic steatohepatitis C57BL/6 mouse assessed as reduction in liver collagen fiber content at 80 mg/kg, po administered for 1 month by sirius red staining based assay; format: functional, organism-based; conditions: time 1.0 months
[29] = Toxicity in C57BL/6 mouse assessed as inflammatory infiltration; conditions: in vivo
[30] = molecular target: COP1-AGTL (Homo sapiens) (UniProt Q96AD5+Q8NHY2); assay: Induction of COP1 to ATGL stabilization (unknown origin) expressed in HEK293-A cells assessed as reduction in ATGL ubiquitination incubated for 6 hrs by Western blotting analysis; format: cell-based
[31] = system: Mus musculus; assay: Upregulation of COP1 expression level in C57BL/6 mouse adipose tissue at 80 mg/kg, po administered for 7 days; format: functional, organism-based; conditions: time 7.0 day
[32] = molecular target: T1, Patatin-like phospholipase domain-containing protein 2 (Homo sapiens); assay: Inhibition of ATGL ubiquitination (unknown origin) expressed in HEK293-A cells incubated for 6 hrs by Western blotting analysis; format: cell-based
[33] = Metabolic stability in human liver microsomes assessed as hepatic blood flow; format: ADME, Microsome; conditions: read-out: QH
[34] = Toxicity in C57BL/6 mouse assessed as change in lung morphology by H and E staining based histological analysis; format: tissue-based; conditions: in vivo
[35] = system: Mus musculus; assay: Anti-NASH activity in high-fat diet induced nonalcoholic steatohepatitis C57BL/6 mouse assessed as reduction in liver weight at 80 mg/kg, po administered for 1 month; format: functional, organism-based; conditions: time 1.0 months
[36] = Toxicity in C57BL/6 mouse assessed as change in kidney tubular structure; format: tissue-based; conditions: in vivo
[37] = molecular target: E3 ubiquitin-protein ligase COP1 (Homo sapiens) (UniProt Q8NHY2); assay: Inhibition of COP1 auto-ubiquitination in human HepG2 cells preincubated for 20 hrs followed by MG132 addition and measured after 4 hrs by immunoprecipitation method; format: cell-based; conditions: time 24.0 hrs
[38] = system: Mus musculus; assay: Anti-NASH activity in high-fat diet induced nonalcoholic steatohepatitis C57BL/6 mouse assessed as appearance of darker liver at 80 mg/kg, po administered for 1 month; format: functional, organism-based; conditions: time 1.0 months
[39] = Metabolic stability in mouse liver microsomes assessed as half life; format: ADME, Microsome

COP1-AGTL (Homo sapiens), sequence (Q8NHY2 whole entry, looked up, one chain of several): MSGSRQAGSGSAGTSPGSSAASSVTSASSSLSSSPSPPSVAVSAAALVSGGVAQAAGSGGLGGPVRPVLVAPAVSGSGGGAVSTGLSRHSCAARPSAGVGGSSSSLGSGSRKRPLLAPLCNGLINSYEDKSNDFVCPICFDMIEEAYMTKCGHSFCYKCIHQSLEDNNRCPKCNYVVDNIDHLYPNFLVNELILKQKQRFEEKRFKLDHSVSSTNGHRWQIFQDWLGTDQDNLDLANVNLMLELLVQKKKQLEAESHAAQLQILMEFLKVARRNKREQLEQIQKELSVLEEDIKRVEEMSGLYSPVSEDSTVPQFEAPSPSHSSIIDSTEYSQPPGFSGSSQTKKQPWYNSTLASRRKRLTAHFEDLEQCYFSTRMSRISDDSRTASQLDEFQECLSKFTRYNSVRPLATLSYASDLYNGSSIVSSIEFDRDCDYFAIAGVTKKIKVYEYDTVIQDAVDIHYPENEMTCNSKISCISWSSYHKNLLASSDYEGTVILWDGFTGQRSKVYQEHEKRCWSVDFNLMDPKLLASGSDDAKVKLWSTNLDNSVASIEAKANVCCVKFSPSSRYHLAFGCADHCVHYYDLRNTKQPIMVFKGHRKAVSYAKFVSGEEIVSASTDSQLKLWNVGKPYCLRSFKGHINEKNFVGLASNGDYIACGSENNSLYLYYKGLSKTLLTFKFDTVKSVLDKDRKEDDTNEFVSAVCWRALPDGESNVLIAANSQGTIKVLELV
E3 ubiquitin-protein ligase COP1 (Homo sapiens), sequence (Q8NHY2 whole entry): as the sequence (Q8NHY2 whole entry, looked up, one chain of several) above

| hepatic extraction ratio [1] | microsomal CLint [2] | half-life [5] | remaining at 2 h [7] | solubility [17] | remaining at 2 h [18] | logD [22] | Structure (SMILES) | Activity [3] | Activity [6] | Activity [8] | Activity [9] | Activity [11] | Activity [12] | Activity [13] | Activity [14] | Activity [15] | Activity [16] | Activity [19] | Activity [20] | Activity [21] | other results |
| --- | --- | --- | --- | --- | --- | --- | --- | --- | --- | --- | --- | --- | --- | --- | --- | --- | --- | --- | --- | --- | --- |
| 0.605 | 28.3 µL/min/mg | 24.5 min | 110% | 116 µg/mL (≈ 228 µM) | 103% | 2.78 | COCCn1c(=O)c2cc(NC(=O)Nc3cccc(C(C)=O)c3)ccc2n(CCN2CCCCC2)c1=O | inactive | Non-Toxic | inactive | Non-Toxic | Active | Active | Active | Active | inactive | Dose-Dependent Effect | inactive | Active | Active | Activity [4]: Active; inhibition [10]: Active; Activity [23]: Active; Activity [24]: Active; Activity [25]: inactive; Activity [26]: Non-Toxic; microsomal CLint [27]: 56.2 µL/min/mg; Activity [28]: Active; Activity [29]: Non-Toxic; Activity [30]: Active; Activity [31]: inactive; inhibition [32]: Active; hepatic extraction ratio [33]: 0.567; Activity [34]: Non-Toxic; Activity [35]: Active; Activity [36]: Non-Toxic; inhibition [37]: Active; Activity [38]: Active; half-life [39]: 12.3 min |
| 0.181 | 5.84 µL/min/mg | 119 min | 16.9% | 2.56 µg/mL (≈ 6.73 µM) | 14.2% | 2.38 | COCCn1cnc2ccc(NC(=O)Nc3cccc(C(C)=O)c3)cc2c1=O | inactive | Non-Toxic | inactive | Non-Toxic | Active | Active | Active | Active | inactive | Dose-Dependent Effect | inactive | Active | Active | Activity [23]: Active; Activity [25]: inactive; Activity [26]: Non-Toxic; microsomal CLint [27]: 8.15 µL/min/mg; Activity [28]: Active; Activity [29]: Non-Toxic; Activity [30]: Active; Activity [31]: inactive; inhibition [32]: Active; hepatic extraction ratio [33]: 0.213; Activity [34]: Non-Toxic; Activity [35]: Active; Activity [36]: Non-Toxic; Activity [38]: Active; half-life [39]: 87 min |
